The values below come from US20230138851A1, “NOVEL ALKYNE DERIVATIVES” (CARNA BIOSCIENCES, INC., priority 2020, published 2023).

Bounds are passed on as bounds.

Common to all, as to type: biochemical
The target of test [1] is T1, DYRK1B (Homo sapiens, UniProt Q9Y463).
T1 construct: purchased Carna Biosciences, Inc. 04-131
Put plainly: Inhibition test on activity of DYRK family, mobility shift assay (MSA), DYRK1B. Details: Inhibitory Activity 1b (IC50 against DYRK1B): scale not given here. The note with it: ATP 200 μM, FITC-labeled DYRKtide peptide substrate, room temperature 1 hour. The protocol: [Inhibition Test on Activity of DYRK Family (DYRK1A, DYRK1B, DYRK2, and […])]
(Method for Measuring Kinase Activity)
The kinase activity was measured by mobility shift assay (MSA) method using QuickScout Screening Assist™ MSA (commercially available kit manufactured by Carna Biosciences, Inc.). The substrate of the kinase reaction used was an FITC-labeled DYRKtide peptide included in the kit. An assay buffer [20 mM HEPES, 0.01% Triton X-100™, 2 mM dithiothreitol, pH 7.5] was used to create a substrate mixture solution with a substrate (4 μM), MgCl2 (20 mM), and ATP (DYRK1A: 100 μM; DYRK1B: 200 μM; DYRK2: 40 μM; and DYRK3: 20 μM). In addition, kinases (DYRK1A: manufactured by Carna Biosciences, Inc., Cat. No. 04-130; DYRK1B: manufactured by Carna Biosciences, Inc., Cat. No. 04-131; DYRK2; manufactured by Carna Biosciences, Inc., Cat. No. 04-132; and DYRK3; manufactured by Carna Biosciences, Inc., Cat. No. 04-133) were diluted with the assay buffer to prepare enzyme solutions (DYRK1A: 0.2 ng/μL; DYRK1B: 0.08 ng/μL; DYRK2: 0.04 ng/μL; and DYRK3: 0.25 ng/μL). The 10 mM solution of the test compound in DMSO was further diluted with DMSO to 10 levels of the concentration (0.00003 mM, 0.0001 mM, 0.0003 mM, 0.001 mM, 0.003 mM, 0.01 mM, 0.03 mM, 0.1 mM, 0.3 mM, and 1 mM), each of which was subjected to 25-fold dilution with the assay buffer to obtain a drug solution (4% DMSO solution). 5 μL of the drug solution or a control solution (4% DMSO-assay buffer), 5 μL of the substrate mixture solution, and 10 μL of the enzyme solution were mixed in the wells of a polypropylene 384-well plate and allowed to react at room temperature for 1 hour, and then the reaction was quenched by adding 60 μL of the termination buffer included in the kit. Subsequently, the quantities of the substrates (S) and the phosphorylated substrate (P) in the reaction solution were measured using LabChip EZ Reader II system (manufactured by Caliper Life Sciences) according to the protocol of the assay kit.
(Method for Evaluating Inhibitory Activity)
The heights of the peaks of the “substrate” and the “phosphorylated substrate” were expressed as S and P, respectively, and a blank containing the assay buffer instead of the enzyme solution was also measured.
The inhibition rate (%) of the test compound was calculated according to the following equation:
Inhibition rate (%)=(1−(C−A)/(B−A))×100
wherein, A, B, and C represent P/(P+S) of the blank well, P/(P+S) of the control solution well, and P/(P+S) of the compound-containing well, respectively.
The IC50 value was calculated via a regression analysis of the inhibition rate and the test compound concentration (logarithmic value).
The inhibiting activities of representative compounds of the present invention are shown against DYRK1A, DYRK1B, DYRK2, and DYRK3 in Tables 7 and 8. The kinase activity inhibitory effect was indicated with the mark *** at an IC50 value of less than 0.01 μM; the mark ** at 0.01 μM or more and less than 0.1 μM; the mark * at 0.1 μM or more and less than 1 μM; and the mark — at 1 μM or more (N.D. indicates not measured).

Test [2] addresses T2, DYRK2 (Homo sapiens, UniProt Q92630).
T2 construct: purchased Carna Biosciences, Inc. 04-132
T2 sequence (Q92630 1-601): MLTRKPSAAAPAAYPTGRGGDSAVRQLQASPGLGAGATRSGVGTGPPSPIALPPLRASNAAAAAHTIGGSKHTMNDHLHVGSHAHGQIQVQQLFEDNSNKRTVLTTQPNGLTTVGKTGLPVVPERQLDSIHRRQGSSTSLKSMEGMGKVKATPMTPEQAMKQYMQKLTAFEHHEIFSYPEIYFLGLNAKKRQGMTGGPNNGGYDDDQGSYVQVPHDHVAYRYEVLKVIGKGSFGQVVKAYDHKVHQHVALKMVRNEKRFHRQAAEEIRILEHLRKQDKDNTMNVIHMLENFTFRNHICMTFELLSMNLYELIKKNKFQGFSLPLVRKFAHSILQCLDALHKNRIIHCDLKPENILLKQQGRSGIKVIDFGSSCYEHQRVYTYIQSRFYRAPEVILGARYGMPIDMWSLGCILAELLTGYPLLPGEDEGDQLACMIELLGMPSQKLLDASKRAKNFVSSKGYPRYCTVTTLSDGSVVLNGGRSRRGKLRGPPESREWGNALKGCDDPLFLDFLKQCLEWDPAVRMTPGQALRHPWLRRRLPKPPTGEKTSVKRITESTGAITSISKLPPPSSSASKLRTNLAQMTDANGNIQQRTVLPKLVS
Put plainly: Inhibition test on activity of DYRK family, mobility shift assay (MSA), DYRK2. The note with it: ATP 40 μM, FITC-labeled DYRKtide peptide substrate, room temperature 1 hour; read-out: Inhibitory Activity 2 (IC50 against DYRK2). In a few lines:
(§1)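 FITC-DYRKtide phosphorylation in 20 mM HEPES pH 7.5 with MgCl2; ATP in the substrate mix was 100 μM (DYRK1A), 200 μM (DYRK1B), 40 μM (DYRK2) or 20 μM (DYRK3). Reactions ran 1 h at room temperature; inhibition from P/(P+S) versus blank and DMSO control, IC50 by regression on log concentration.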

For test [3], the target named is T3, DYRK3 (Homo sapiens, UniProt O43781).
T3 construct: purchased Carna Biosciences, Inc. 04-133
T3 sequence (O43781 1-588): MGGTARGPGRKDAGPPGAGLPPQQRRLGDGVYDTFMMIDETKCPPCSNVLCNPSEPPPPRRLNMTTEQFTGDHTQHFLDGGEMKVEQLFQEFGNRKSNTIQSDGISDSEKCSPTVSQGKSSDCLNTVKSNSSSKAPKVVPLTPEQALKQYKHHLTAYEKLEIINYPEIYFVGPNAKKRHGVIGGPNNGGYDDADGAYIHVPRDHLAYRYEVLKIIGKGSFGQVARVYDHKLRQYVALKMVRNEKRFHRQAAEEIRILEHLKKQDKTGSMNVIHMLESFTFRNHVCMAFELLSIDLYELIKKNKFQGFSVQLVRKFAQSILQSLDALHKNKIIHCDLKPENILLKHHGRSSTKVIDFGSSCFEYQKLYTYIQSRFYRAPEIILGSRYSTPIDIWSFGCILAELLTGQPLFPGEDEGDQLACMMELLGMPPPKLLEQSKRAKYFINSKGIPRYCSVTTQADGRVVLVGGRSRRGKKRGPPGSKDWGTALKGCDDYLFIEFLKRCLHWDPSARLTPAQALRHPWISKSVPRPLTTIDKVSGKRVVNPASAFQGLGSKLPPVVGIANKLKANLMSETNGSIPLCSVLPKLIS
Put plainly: Inhibition test on activity of DYRK family, mobility shift assay (MSA), DYRK3. The note with it: ATP 20 μM, FITC-labeled DYRKtide peptide substrate, room temperature 1 hour; for IC50: read-out: Inhibitory Activity 3 (IC50 against DYRK3). The gist of the method: as §1

In test [4] the target is T4, DYRK1A (Homo sapiens, UniProt Q13627).
T4 construct: purchased Carna Biosciences, Inc. 04-130
Kind of test: Inhibition test on activity of DYRK family, mobility shift assay (MSA), DYRK1A. The following applies: ATP 100 μM, FITC-labeled DYRKtide peptide substrate, room temperature 1 hour; for IC50: read-out: Inhibitory Activity 1a (IC50 against DYRK1A). In a few lines:
as §1

T1 sequence (Q9Y463 whole entry): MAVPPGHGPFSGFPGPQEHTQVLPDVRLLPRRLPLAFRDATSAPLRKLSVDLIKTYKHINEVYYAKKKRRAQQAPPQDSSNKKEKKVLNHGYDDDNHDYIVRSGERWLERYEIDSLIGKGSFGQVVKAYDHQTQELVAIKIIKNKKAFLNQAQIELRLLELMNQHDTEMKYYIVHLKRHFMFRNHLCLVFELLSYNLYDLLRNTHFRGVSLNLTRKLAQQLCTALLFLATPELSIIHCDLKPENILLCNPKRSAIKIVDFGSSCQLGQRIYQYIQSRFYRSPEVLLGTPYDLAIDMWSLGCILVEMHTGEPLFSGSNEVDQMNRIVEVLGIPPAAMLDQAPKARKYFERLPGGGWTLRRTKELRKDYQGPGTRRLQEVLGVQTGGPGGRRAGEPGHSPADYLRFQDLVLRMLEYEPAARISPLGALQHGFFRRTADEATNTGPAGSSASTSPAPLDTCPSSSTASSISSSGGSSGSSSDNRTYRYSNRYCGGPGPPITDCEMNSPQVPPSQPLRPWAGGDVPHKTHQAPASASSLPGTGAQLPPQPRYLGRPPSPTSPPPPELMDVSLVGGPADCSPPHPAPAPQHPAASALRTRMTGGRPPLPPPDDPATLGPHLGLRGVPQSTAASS

For the compound `CC#CC1CNC(=O)N1c1nc2c3c(ccc2s1)OCO3` (racemic) [Example 1, (RS)-1-([1,3]dioxolo[4′,5′:5,6]benzo[1,2-d]thiazol-7-yl)-5-(prop-1-yn-1-yl)imidazolidin-2-one], in test [1], the “Inhibitory Activity 1b (IC50 against DYRK1B)” value (“Inhibitory Activity 1b” for short) is listed as “* * *”. Further, the 50% inhibitory concentration (IC50) – broadly, the midpoint of a concentration-inhibition curve – in test [2] was 0.1 to 1 µM. The “Inhibitory Activity 3 (IC50 against DYRK3)” value in test [3] is “* *”. The “Inhibitory Activity 1a (IC50 against DYRK1A)” value (“Inhibitory Activity 1a” below) in test [4] is “* * *”.

Take `CC#CC1CNC(=O)N1c1nc2c3c(ccc2s1)OCC3` (racemic) [Example 8, (RS)-1-(7,8-dihydrobenzofuro[4,5-d]thiazol-2-yl)-5-(prop-1-yn-1-yl)imidazolidin-2-one]: the “Inhibitory Activity 1b” value in test [1] is “* * *”. Also, the IC50 in test [2] was in the range of 0.1 to 1 µM. The “Inhibitory Activity 3 (IC50 against DYRK3)” value in test [3] was “* *”. Further, in test [4], the “Inhibitory Activity 1a” value is “* * *”.

In the case of `CC#CC1CNC(=O)N1c1nc2c(ccc3nccnc32)s1` (racemic) [Example 24, (RS)-5-(prop-1-yn-1-yl)-1-(thiazolo[4,5-f]quinoxalin-2-yl)imidazolidin-2-one], the “Inhibitory Activity 1b” value in test [1] is “* * *”. Moreover, the half-maximal inhibitory concentration (IC50) in test [2] and in test [3] was 0.1 to 1 µM each time. Also, in test [4], the “Inhibitory Activity 1a” value was “* * *”.

Consider `CC#CC1CNC(=O)N1c1nc2c3c(ccc2s1)OCCN3C` (racemic) [Example 25, (RS)-1-(9-methyl-8,9-dihydro-7H-thiazolo[4′,5′;3,4]benz[1,2-b][1,4]oxazin-2-yl)-5-(prop-1-yn-1-yl)imidazolidin-2-one], for which the “Inhibitory Activity 1b” value in test [1] was “* * *”. The concentration for half-maximal inhibition (IC50) in test [2] and in test [3] was 0.1 to 1 µM in each case. Moreover, the “Inhibitory Activity 1a” value in test [4] is on record as “* * *”.

On to `[2H]C1([2H])Oc2ccc3sc(N4C(=O)NC[C@H]4C#CC)nc3c2O1` [Example 62, (R)-1-([1,3]dioxolo[4′,5′:5,6]benz[1,2-d]thiazol-7-yl-2,2-d2)-5-(prop-1-yn-1-yl)imidazolidin-2-one], for which the concentration for half-maximal inhibition (IC50) in test [2] fell in the range of 0.1 to 1 µM. Moreover, the “Inhibitory Activity 3 (IC50 against DYRK3)” value in test [3] is on record as “* *”. The “Inhibitory Activity 1a” value in test [4] is on record as “* * *”.

Take `CC#CC1C(CN)NC(=O)N1c1nc2c3c(ccc2s1)OCC3` (stereo not shown) [Example 63, 4-(aminomethyl)-1-(7,8-dihydrobenzofuro[4,5-d]thiazol-2-yl)-5-(prop-1-yn-1-yl)imidazolidin-2-one]: the IC50 in test [2] lay within 0.1 to 1 µM. Further, the “Inhibitory Activity 3 (IC50 against DYRK3)” value in test [3] is on record as “* *”. In addition, the “Inhibitory Activity 1a” value in test [4] is on record as “* * *”.

Consider `CC#C[C@H]1[C@H](C(C)C)NC(=O)N1c1nc2c3c(ccc2s1)OCC3` [Example 67, (4S,5S)-1-(7,8-dihydrobenzofuro[4,5-d]thiazol-2-yl)-4-isopropyl-5-(prop-1-yn-1-yl)imidazolidin-2-one], for which the IC50 in test [2], in test [3] and in test [4] was not below 1 µM each time.

Take `CC#C[C@@H]1[C@H](C(C)C)NC(=O)N1c1nc2c3c(ccc2s1)OCC3` [Example 68, (4S,5R)-1-(7,8-dihydrobenzofuro[4,5-d]thiazol-2-yl)-4-isopropyl-5-(prop-1-yn-1-yl)imidazolidin-2-one]: the values for the concentration for half-maximal inhibition (IC50) in test [2] and in test [3] were not below 1 µM and 0.1 to 1 µM, respectively. Also, the “Inhibitory Activity 1a” value in test [4] is reported as “* * *”.

For the compound `CC#C[C@H]1[C@H]([C@@H](C)O)NC(=O)N1c1nc2c3c(ccc2s1)OCC3` [Example 81, (4R,5S)-1-(7,8-dihydrobenzofuro[4,5-d]thiazol-2-yl)-4-((R)-1-hydroxyethyl)-5-(prop-1-yn-1-yl)imidazolidin-2-one], the IC50 in test [2] is not below 1 µM; in test [3], not below 1 µM; in test [4], 0.1 to 1 µM.

On to `CC#C[C@@H]1[C@H]([C@@H](C)O)NC(=O)N1c1nc2c3c(ccc2s1)OCC3` [Example 82, (4R,5R)-1-(7,8-dihydrobenzofuro[4,5-d]thiazol-2-yl)-4-((R)-1-hydroxyethyl)-5-(prop-1-yn-1-yl)imidazolidin-2-one], for which, in test [2], the half-maximal inhibitory concentration (IC50) fell in the range of 0.1 to 1 µM. The “Inhibitory Activity 3 (IC50 against DYRK3)” value in test [3] is recorded as “* *”. Also, the “Inhibitory Activity 1a” value in test [4] is on record as “* * *”.

Take `CC#C[C@H]1[C@H]([C@H](C)O)NC(=O)N1c1nc2c3c(ccc2s1)OCC3` [Example 83, (4R,5S)-1-(7,8-dihydrobenzofuro[4,5-d]thiazol-2-yl)-4-((S)-1-hydroxyethyl)-5-(prop-1-yn-1-yl)imidazolidin-2-one]: the values for the IC50 in test [2], in test [3] and in test [4] were not below 1 µM, not below 1 µM and 0.01 to 0.1 µM, respectively.

`CC#C[C@@H]1[C@H]([C@H](C)O)NC(=O)N1c1nc2c3c(ccc2s1)OCC3` [Example 84, (4R,5R)-1-(7,8-dihydrobenzofuro[4,5-d]thiazol-2-yl)-4-((S)-1-hydroxyethyl)-5-(prop-1-yn-1-yl)imidazolidin-2-one]: the half-maximal inhibitory concentration (IC50) in test [2] and in test [3] was 0.1 to 1 µM each time. The “Inhibitory Activity 1a” value in test [4] is listed as “* * *”.
